Measurements: US12398093B2, “Compounds and methods for treating inflammatory disorders” (Board of Supervisors of Louisiana State University and …, priority 2019, dated 2025)

How the values were obtained:
[1] = test system: adult male Brown Norway rats; assay: Ovalbumin allergic asthma model, whole body plethysmography (ΔPenh) after methacholine challenge; type: in vivo; conditions: rats, nebulized inhaled drug
Source text: (§1) A modification of the ovalbumin model of allergic asthma and whole body plethysmography protocol as described in Nau et al. (Am. J. Physiol. Lung Cell Mol. Physiol. 2015, 308(2): L191-L198; incorporated herein by reference) was used to determine ΔPenh, a measure of airways hyperresponsiveness (AHR), in response to methacholine challenge in adult male Brown Norway rats. Results, shown in FIGS. 2A-2G, represent PenH change measured in the ovalbumin allergic asthma assay in rats, with the exception of FIG. 2C, which was measured in mice, for nebulized inhaled drug. Statistics were performed using 2-way ANOVA with Tukey post hoc test for multiple comparisons.
Allergic asthma is defined as a chronic inflammatory disorder of the airways. This disease is characterized by airway inflammation, persistent airways AHR and intermittent, reversible airways obstruction.
Area under the curve of PenH values (PenH-AUC) in response to incremental doses of metacholine were calculated for each testing groups, naïve, OVA treated, and OVA+DRUG treated animals. A reduction in PenH-AUC values of more than 75% of the control values (OVA alone) was annotated as a strong efficacy. […] Additional to this information are provided the relative to R-DOI EC50 values (ratio) of tested compounds in 5-HT2AR heterologous cell-based calcium transient assay. […] FIG. 3 illustrates the non-correlative nature of the therapeutic efficacy of the phenylethylamines class of compounds against inflammatory-mediated allergen-induced AHR and the reported evidences of the dose necessary for psychoactive disturbances experienced with these compounds in humans or the potency and strength of these compounds to the 5-HT2AR in calcium transients assays.
Inhibition of ΔPenh as a function of 2C-iBu concentration was studied by nebulization nose-only administration of 2C-iBu to male adult Brown Norway rats as described above. Area under the curve for each treatment group at a given dose of 2C-iBu for ΔPenh is plotted on the Y-axis versus concentration of 2C-iBu on the X-axis.

human 5-HT2A receptor = molecular target: T1, human 5-HT2A receptor (Homo sapiens, UniProt P28223); assay: Gq-mediated calcium transients (calcium mobilization), Fluo-4, HEK cells; type: cell-based; conditions: for pEC50 calcium mobilization / EMAX (%) calcium mobilization: Table 4; for EMAX (%) calcium mobilization: percentage of 5-HT response; for Emax: HEK293, read-out: EMAX (%) calcium mobilization
T1 construct: expressed in transfected cells

5-HT2AR-Tango construct = molecular target: T2, 5-HT2AR-Tango construct (Homo sapiens, UniProt P28223); assay: β-arrestin-2 recruitment, PRESTO-Tango assay in HTLA cells; type: cell-based; conditions: for pEC50 beta arrestin recruitment / EMAX (%) beta arrestin recruitment: Table 5; for EMAX (%) beta arrestin recruitment: percentage of 5-HT response
T2 construct: expressed in transfected cells; host or cells: HTLA cells (transient transfection)

mice = assay: Ovalbumin allergic asthma assay (PenH), nebulized inhaled drug, mice (FIG. 2C); type: in vivo; conditions: 1.0 mg/kg (FIG. 2C)
Source text: as §1

T2 sequence (P28223 whole entry, added parts left off): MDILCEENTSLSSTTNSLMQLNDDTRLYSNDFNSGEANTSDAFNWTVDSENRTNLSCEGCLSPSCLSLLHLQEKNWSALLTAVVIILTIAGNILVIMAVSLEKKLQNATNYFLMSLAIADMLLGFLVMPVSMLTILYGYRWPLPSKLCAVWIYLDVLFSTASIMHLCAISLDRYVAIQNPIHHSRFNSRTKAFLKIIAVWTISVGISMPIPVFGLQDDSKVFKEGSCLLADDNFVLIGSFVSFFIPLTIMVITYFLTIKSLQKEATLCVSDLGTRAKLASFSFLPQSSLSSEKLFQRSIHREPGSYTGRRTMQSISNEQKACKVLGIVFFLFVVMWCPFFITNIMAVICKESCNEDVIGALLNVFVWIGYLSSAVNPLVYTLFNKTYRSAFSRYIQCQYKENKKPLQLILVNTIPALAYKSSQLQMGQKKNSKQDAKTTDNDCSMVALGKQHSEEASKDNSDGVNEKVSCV
T2 sequence (P32121 whole entry partner): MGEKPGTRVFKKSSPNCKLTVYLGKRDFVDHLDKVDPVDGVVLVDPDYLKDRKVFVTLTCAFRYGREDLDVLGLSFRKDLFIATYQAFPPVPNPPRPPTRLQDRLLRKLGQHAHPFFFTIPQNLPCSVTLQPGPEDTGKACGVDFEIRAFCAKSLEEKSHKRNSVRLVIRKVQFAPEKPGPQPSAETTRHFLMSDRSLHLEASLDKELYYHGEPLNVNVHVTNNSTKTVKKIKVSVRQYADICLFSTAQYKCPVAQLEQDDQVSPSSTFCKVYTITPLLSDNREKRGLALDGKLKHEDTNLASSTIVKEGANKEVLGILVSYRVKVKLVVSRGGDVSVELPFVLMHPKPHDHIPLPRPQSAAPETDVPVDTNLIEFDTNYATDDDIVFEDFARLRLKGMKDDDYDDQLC
T1 sequence (P28223 whole entry): as the sequence (P28223 whole entry, added parts left off) above

SMILES	pEC50 calcium mobilization (human 5-HT2A receptor)	EMAX (%) calcium mobilization (human 5-HT2A receptor) [%]	EMAX (%) beta arrestin recruitment (5-HT2AR-Tango construct) [%]	also measured
Cl.NCCc1c2c(c(Br)c3c1OCC3)OCC2 [2C-B-Fly.HCl]				Prevention of AHR (ΔPenh/PenH) in response to OVA ([1]; 0.5 mg/kg): significant difference from OVA to naive, and from 2C-B-Fly.HCl+OVA to naive
COc1cc(CCN)c(OC)cc1Br [2C-B]	8.11	78.00	39.46	pEC50 beta arrestin recruitment (5-HT2AR-Tango construct): 5.99
COc1ccc(OC)c(CCN)c1 [2C-H]	6.34	69.50	10.98	pEC50 beta arrestin recruitment (5-HT2AR-Tango construct): 7.07
COc1cc(CCN)c(OC)cc1I [2C-I]	8.14	72.80		
COc1cc(CC(C)(C)C)c(OC)cc1CCN [2C-NP]				EC50 (human 5-HT2A receptor): 155 nM; Emax (human 5-HT2A receptor): 76%
COc1cc(C(C)C)c(OC)cc1CCN [2C-iP]	7.59	52.07	3.46	pEC50 beta arrestin recruitment (5-HT2AR-Tango construct): 7.8
COc1cc(CCNCc2ccccc2OC)c(OC)cc1I [25I-NBOMe]				Prevention of AHR (ΔPenh/PenH) in response to OVA ([1]; 1.0 mg/kg): reduced potency
COc1cc(CC(C)N)c(OC)cc1Br (stereo not drawn) [DOB]				Prevention of AHR (PenH) in response to OVA (mice): did not reduce potency
COc1cc(C(F)(F)F)c(OC)cc1CC(C)N (stereo not drawn) [DOTFM]				Prevention of AHR (ΔPenh/PenH) in response to OVA ([1]; 0.5 mg/kg): significant difference from OVA+DOTFM to naive
COc1cc(CC(C)N)c(OC)cc1CC(C)C (stereo not drawn) [DOiBu]				EC50 (human 5-HT2A receptor): 4.47 nM; Emax (human 5-HT2A receptor): 90.6%; EC50 (5-HT2AR-Tango construct): 5.89 nM; Emax (5-HT2AR-Tango construct; HTLA, read-out: EMAX (%) beta arrestin recruitment): 70.2%
COc1cc(C(C)C)c(OC)cc1CC(C)N (stereo not drawn) [DOiP]	8.29	73.17	20.40	pEC50 beta arrestin recruitment (5-HT2AR-Tango construct): 8.24
COc1ccc(OC)c(C[C@@H](C)N)c1 [R-2,5-DMA]		108.38	65.51	
COc1cc(C[C@@H](C)N)c(OC)cc1Br [R-DOB]		79.80	98.14	
COc1cc(Br)c(OC)c2c1[C@H](CN)C2 [TCB-2]				Prevention of AHR (ΔPenh/PenH) in response to OVA ([1]; 0.5 mg/kg): reduced PenH, it was still significantly elevated over naive controls
